# PubChem BioAssay (NCI)
#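 Grown in 96-well plates, cells were treated for 48 hours with each compound at five concentrations. Insufficient inhibition: endpoint recorded as highest concentration tested. The concentration for 50% growth inhibition is given as GI50. TGI marks complete inhibition of growth.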
# Assays:
# Assay in all cases: NCI-60 cell line screen, 48 h
# HL-60(TB) leukemia = system: HL-60(TB) leukemia
# SN12C renal = system: SN12C renal
# SF-539 CNS = system: SF-539 CNS
# SK-OV-3 ovarian = system: SK-OV-3 ovarian
# RXF 393 renal = system: RXF 393 renal
# HCC-2998 colon = system: HCC-2998 colon
# KM12 colon = system: KM12 colon
# COLO 205 colon = system: COLO 205 colon
SMILES,TGI (HL-60(TB) leukemia) [µM],TGI (SN12C renal) [µM],TGI (SF-539 CNS) [µM],TGI (SK-OV-3 ovarian) [µM],TGI (RXF 393 renal) [µM],TGI (HCC-2998 colon) [µM],TGI (KM12 colon) [µM],TGI (COLO 205 colon) [µM],GI50 (SN12C renal) [µM],GI50 (SK-OV-3 ovarian) [µM],GI50 (RXF 393 renal) [µM],GI50 (HCC-2998 colon) [µM],GI50 (KM12 colon) [µM],GI50 (COLO 205 colon) [µM],GI50 (HL-60(TB) leukemia) [µM],GI50 (SF-539 CNS) [µM]
NC(CO)C(=O)NCC(=O)O (centres undefined),> 100,> 100,> 100,> 100,> 100,> 100,> 100,> 100,,,,,,,,
Cc1cn2c(/C=N/N=C(N)N)c(-c3ccsc3)nc2s1,,10.9,,25.6,33.5,5.33,29.9,15,2.27,10.6,17.3,2.34,6.6,3.18,,
COc1ccc(/C(=N/O)c2cc(OC)c(OC)c(OC)c2)c(OC)c1N,14.3,> 100,> 100,> 100,,> 100,> 100,13.5,15.4,8.51,,4.29,3.27,3,3.38,2.98
Oc1c(CNCCNCc2cc(Cl)cc(Cc3ccccc3)c2O)cc(Cl)cc1Cc1ccccc1,9.84,19.4,3.93,> 100,3.97,10.1,15.2,1.53,0.483,0.462,0.414,0.451,0.34,0.309,0.43,0.314
Oc1ccccc1C=Nc1ccccc1N=Cc1ccccc1O.[Cu+2],,18.7,27.7,18.3,26.6,20.9,15,14.5,4.84,5.23,13.2,7.95,3.5,3.45,,11.8
N=C(N)SCc1ccc([N+](=O)[O-])cc1[N+](=O)[O-],17.3,27.2,25.7,53.7,4.13,18.1,22.7,7.96,12.1,20.8,1.38,6.05,9.5,2.9,3.38,11
COc1ccc2nccc(/C=C/c3ccnc4ccc(OC)cc34)c2c1,> 86.5,> 100,> 100,> 100,> 100,> 100,> 100,> 100,> 100,> 77,> 73.4,> 100,> 73.1,> 100,> 50.8,> 93.1
COc1cc2c(cc1O)C(c1cc(O)c(O)c(OC)c1)C(O)(C(=O)O)C(CO)C2O (centres undefined),,32.6,> 100,> 100,> 100,> 100,> 100,> 100,,,,,,,,
NCCN1C(=O)c2ccccc2C1(O)c1ccc(Cl)cc1 (centres undefined),70.8,> 100,43.2,81.1,55.8,,30.5,39.4,,,,,,,,
CC12CCC(O)CC1=CCC1C2CCC2(C)C(c3cccnc3)=CCC12 (centres undefined),> 100,> 100,> 100,> 100,> 100,> 100,> 100,> 100,> 100,> 100,40.2,> 100,> 100,> 100,> 100,> 100
CC(OC(=O)N(N(CCCl)S(C)(=O)=O)S(C)(=O)=O)c1ccc([N+](=O)[O-])cc1 (centres undefined),> 100,> 100,> 47.5,> 100,> 100,> 100,> 100,> 100,34.9,> 100,> 100,56,> 82,77.6,40.1,3.42
CN(C)CCNc1nc2ccccc2c2occc12,> 100,82.5,83.6,> 100,86.2,89.5,> 100,> 100,27.7,85.1,31.6,36,51.7,25.2,49.6,35.9
CN(C)CCOc1ccc(-c2cc(-c3ccc4c(c3)CC/C4=N\O)c(-c3ccncc3)o2)cc1,10.8,7.73,7.41,7.51,6.78,9.5,7.28,4.35,3.96,4.08,3.07,5.5,3.57,0.112,5.46,3.64
CC(=O)c1ccc2c(c1)N(CCCN(C)C)c1ccccc1S2,41,30.8,28.2,26.3,22,27.6,29.6,11.7,14.5,13.1,8.86,14.4,15.7,3.32,14,13.7
COc1ccc(Oc2cc(NCCC(F)(F)F)c3ncc(-c4ccc(C(=O)NC5CC5)c(C)c4)n3n2)c(F)c1F,> 100,> 100,21.9,27.2,31.9,> 100,> 100,50.7,0.527,0.399,0.425,12.3,1.44,< 0.0215,2.22,0.758
Nc1ncnc2nn(C3OC(CO)C(O)C3O)nc12 (centres undefined),23.6,> 68.5,58.5,16.6,> 23.1,32.8,> 100,15.8,,,,,,,,
